Results published in PubChem BioAssay AID330 (DTP/NCI, 2004).
Where “and” joins values, the source holds several entries; their conditions need not be identical. Equal entries are not always repeated. Inconclusive results and toxic doses are left out. The calls were made as follows: active = survival T/C of 150% or more; inactive = T/C below 125% in these data.

Tested on: P388 leukemia ip, CD2F1 mice, survival T/C
Assay: NCI In Vivo Anticancer Drug Screen. Data for tumor model P388 Leukemia (intraperitoneal) in CD2F1 (CDF1) mice
Settings: endpoint: median survival time, higher = longer survival
Procedure, shortened: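 Mice carrying the transplanted tumor received test compound or vehicle. Survival was recorded in each group, and the value is the treated-group measurement divided by that of the vehicle-treated control group.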

[1] = dose: 100.0 mg/kg/injection, schedule: Q01DX009 (ip), vehicle: saline with Tween-80
[2] = dose: 200.0 mg/kg/injection, schedule: Q01DX009 (ip), vehicle: saline with Tween-80
[3] = dose: 60.0 mg/kg/injection, schedule: Q01DX005 (ip), vehicle: saline with Tween-80
[4] = dose: 120.0 mg/kg/injection, schedule: Q01DX005 (ip), vehicle: saline with Tween-80
[5] = dose: 240.0 mg/kg/injection, schedule: Q01DX005 (ip), vehicle: saline with Tween-80
[6] = dose: 50.0 mg/kg/injection, schedule: Q01DX009 (ip), vehicle: saline with Tween-80
[7] = dose: 100.0 mg/kg/injection, schedule: Q04DX003 (ip), vehicle: saline with Tween-80
[8] = dose: 200.0 mg/kg/injection, schedule: Q04DX003 (ip), vehicle: saline with Tween-80
[9] = dose: 50.0 mg/kg/injection, schedule: Q01DX005 (ip), vehicle: saline with Tween-80
[10] = dose: 100.0 mg/kg/injection, schedule: Q01DX005 (ip), vehicle: saline with Tween-80
[11] = dose: 200.0 mg/kg/injection, schedule: Q01DX005 (ip), vehicle: saline with Tween-80

Measured: T/C

O=C(c1ccccc1)C(C(c1ccccc1)N1CCOCC1)N1CCOCC1 (stereo not drawn)
inactive: [1] 94 % of control | [2] 94 % of control | dose: 400.0 mg/kg/injection, schedule: Q01DX009 (ip), vehicle: saline with Tween-80 94 % of control

CC[C@@H]1C[C@@H]2CN3CCc4c([nH]c5cc(Cc6ccc(OC)c(OC)c6)c(OC)cc45)C(C(=O)OC)(C2)C13
inactive: dose: 0.5 mg/kg/injection, schedule: Q01DX009 (ip), vehicle: Klucel (hydroxypropylcellulose) (HPC) 96 % of control | dose: 1.0 mg/kg/injection, schedule: Q01DX009 (ip), vehicle: Klucel (hydroxypropylcellulose) (HPC) 107 % of control | dose: 2.0 mg/kg/injection, schedule: Q01DX009 (ip), vehicle: Klucel (hydroxypropylcellulose) (HPC) 111 % of control | dose: 4.0 mg/kg/injection, schedule: Q01DX009 (ip), vehicle: Klucel (hydroxypropylcellulose) (HPC) 107 % of control and 97 % of control | dose: 8.0 mg/kg/injection, schedule: Q01DX009 (ip), vehicle: Klucel (hydroxypropylcellulose) (HPC) 101 % of control | dose: 16.0 mg/kg/injection, schedule: Q01DX009 (ip), vehicle: Klucel (hydroxypropylcellulose) (HPC) 98 % of control

O=C1/C(=C/c2ccncc2)CCCc2ccccc21
inactive: dose: 60.0 mg/kg/injection, schedule: Q01DX005 (ip), vehicle: Klucel (hydroxypropylcellulose) (HPC) 102 % of control | dose: 120.0 mg/kg/injection, schedule: Q01DX005 (ip), vehicle: Klucel (hydroxypropylcellulose) (HPC) 104 % of control

Nc1ncnc(N)c1NC(=O)c1ccc(OCc2ccccc2)cc1
inactive: [3] 105 % of control | [4] 99 % of control | [5] 95 % of control

CC1(O)C=CP(C)(=O)C1 (stereo not drawn)
inactive: dose: 12.5 mg/kg/injection, schedule: Q01DX009 (ip), vehicle: saline 108 % of control | dose: 25.0 mg/kg/injection, schedule: Q01DX009 (ip), vehicle: saline 110 % of control | dose: 50.0 mg/kg/injection, schedule: Q01DX009 (ip), vehicle: saline 111 % of control | dose: 100.0 mg/kg/injection, schedule: Q01DX009 (ip), vehicle: saline 100 % of control | dose: 200.0 mg/kg/injection, schedule: Q01DX009 (ip), vehicle: saline 86 % of control

BrC1(Br)C2CCCCCCC21 (stereo not drawn)
inactive: [6] 100 % of control | dose: 50.0 mg/kg/injection, schedule: Q04DX003 (ip), vehicle: saline with Tween-80 100 % of control | [1] 100 % of control | [7] 104 % of control | [2] 100 % of control | [8] 104 % of control

CC1(C)CN(C2CCCCC2)CN2C1OCC2(C)C (stereo not drawn)
inactive: dose: 80.0 mg/kg/injection, schedule: Q01DX009 (ip), vehicle: saline with Tween-80 117 % of control

CC(=O)OC(C)C(C)N(C)C (stereo not drawn)
inactive: dose: 100.0 mg/kg/injection, schedule: Q04DX003 (ip), vehicle: saline 94 % of control | dose: 200.0 mg/kg/injection, schedule: Q04DX003 (ip), vehicle: saline 101 % of control

C1COCCNCCOCCOCCN1
inactive: dose: 50.0 mg/kg/injection, schedule: Q01DX005 (ip), vehicle: saline 95 % of control | dose: 100.0 mg/kg/injection, schedule: Q01DX005 (ip), vehicle: saline 106 % of control | dose: 200.0 mg/kg/injection, schedule: Q01DX005 (ip), vehicle: saline 95 % of control

Cc1cccc(N2CCN(S(C)(=O)=O)CC2)c1
inactive: [7] 101 % of control | [8] 102 % of control | dose: 400.0 mg/kg/injection, schedule: Q04DX003 (ip), vehicle: saline with Tween-80 110 % of control

O=c1c(Cc2ccccc2)coc2ccccc12
inactive: [3] 106 % of control | [4] 100 % of control | [5] 103 % of control

CCOc1ccc(OCC)c(C(O)C(C)NC(C)C)c1 (stereo not drawn)
inactive: dose: 6.25 mg/kg/injection, schedule: Q01DX009 (ip), vehicle: Klucel (hydroxypropylcellulose) (HPC) 101 % of control | dose: 12.5 mg/kg/injection, schedule: Q01DX009 (ip), vehicle: Klucel (hydroxypropylcellulose) (HPC) 100 % of control | dose: 25.0 mg/kg/injection, schedule: Q01DX009 (ip), vehicle: Klucel (hydroxypropylcellulose) (HPC) 99 % of control and 115 % of control

CON1C(=O)OCC(c2ccccc2)(c2ccccc2)C1=O
inactive: [9] 99 % of control | [10] 104 % of control | [11] 91 % of control

COc1cc(OC)c(/C=C\c2nccc3ccccc23)c(OC)c1
inactive: [6] 95 % of control | [1] 96 % of control | [2] 96 % of control

O=C1NN2CCN=C2c2cccnc21
inactive: dose: 3.75 mg/kg/injection, schedule: Q01DX005 (ip), vehicle: saline with Tween-80 100 % of control | dose: 7.5 mg/kg/injection, schedule: Q01DX005 (ip), vehicle: saline with Tween-80 95 % of control | dose: 15.0 mg/kg/injection, schedule: Q01DX005 (ip), vehicle: saline with Tween-80 100 % of control and 93 % of control | [3] 101 % of control

COc1cccc2c1C(=O)c1c(O)c3c(c(O)c1C2=O)CC(O)(C(C)=O)CC3OC1CC(N)C(C(C)O)O1 (stereo not drawn)
inactive: dose: 2.25 mg/kg/injection, schedule: Q04DX003 (ip), vehicle: distilled water + Tween-80 100 % of control | dose: 4.5 mg/kg/injection, schedule: Q04DX003 (ip), vehicle: distilled water + Tween-80 99 % of control | dose: 9.0 mg/kg/injection, schedule: Q04DX003 (ip), vehicle: distilled water + Tween-80 110 % of control | dose: 18.0 mg/kg/injection, schedule: Q04DX003 (ip), vehicle: distilled water + Tween-80 101 % of control | dose: 36.0 mg/kg/injection, schedule: Q04DX003 (ip), vehicle: distilled water + Tween-80 110 % of control

C=CCNC(=O)C(NC(=O)OCCCC)NC(=O)OCCCC
inactive: [9] 95 % of control | [10] 87 % of control | [11] 87 % of control

CC(C)(C)C1=CC2(C(C)(C)C)OC2C(=O)C1=O (stereo not drawn)
inactive: dose: 3.12 mg/kg/injection, schedule: Q01DX009 (ip), vehicle: saline with Tween-80 105 % of control | dose: 6.25 mg/kg/injection, schedule: Q01DX009 (ip), vehicle: saline with Tween-80 105 % of control | dose: 12.5 mg/kg/injection, schedule: Q01DX009 (ip), vehicle: saline with Tween-80 98 % of control

CSCS(=O)C[C@H](CO)NC(=O)/C=C/c1c(C)[nH]c(=O)[nH]c1=O (stereo partly drawn)
inactive: dose: 0.08 mg/kg/injection, schedule: Q01DX009 (ip), vehicle: other 97 % of control | dose: 0.4 mg/kg/injection, schedule: Q01DX009 (ip), vehicle: water 94 % of control | dose: 0.5 mg/kg/injection, schedule: Q01DX009 (ip), vehicle: water 95 % of control

Cc1cc(=O)[nH]c(=O)n1CCCN(C)CCCn1c(C)cc(=O)[nH]c1=O
inactive: [3] 99 % of control | [4] 103 % of control | [5] 102 % of control

c1ccc(CN2CO[C@@H]3CCCCC[C@H]32)cc1
inactive: dose: 100.0 mg/kg/injection, schedule: Q01DX001 (ip), vehicle: Klucel (hydroxypropylcellulose) (HPC) 101 % of control | dose: 100.0 mg/kg/injection, schedule: Q04DX002 (ip), vehicle: Klucel (hydroxypropylcellulose) (HPC) 99 % of control | dose: 200.0 mg/kg/injection, schedule: Q01DX001 (ip), vehicle: Klucel (hydroxypropylcellulose) (HPC) 102 % of control | dose: 200.0 mg/kg/injection, schedule: Q04DX002 (ip), vehicle: Klucel (hydroxypropylcellulose) (HPC) 115 % of control | dose: 400.0 mg/kg/injection, schedule: Q01DX001 (ip), vehicle: Klucel (hydroxypropylcellulose) (HPC) 98 % of control | dose: 400.0 mg/kg/injection, schedule: Q04DX002 (ip), vehicle: Klucel (hydroxypropylcellulose) (HPC) 124 % of control
